Data: the NIST ThermoML archive (doi:10.1021/je020153x)
± gives the expanded uncertainty stated by the source.

Test: mn = molality of the nth substance listed, in mol/kg
Settings: 101.3 kPa, Liquid; for viscosity: Capillary tube (Ostwald / Ubbelohde) method; for mass density: Vibrating tube method

O [water] + O=C[C@H](O)[C@@H](O)[C@H](O)[C@H](O)CO
m2 = 0
Settings	viscosity [mPa·s]
293.15 K	1.002 ± 0.009
303.15 K	0.797 ± 0.007
313.15 K	0.653 ± 0.006

O=C[C@H](O)[C@@H](O)[C@H](O)[C@H](O)CO [D-glucose] + O
Settings	mass density, 293.15 K [kg/m3]	mass density, 303.15 K [kg/m3]	mass density, 313.15 K [kg/m3]	viscosity, 293.15 K [mPa·s]	viscosity, 303.15 K [mPa·s]	viscosity, 313.15 K [mPa·s]
m1 = 0.5	1030.7 ± 0.2	1027.7 ± 0.2	1024 ± 0.2	1.256 ± 0.011	0.988 ± 0.009	0.801 ± 0.007
m1 = 1	1059.7 ± 0.2	1056.4 ± 0.2	1052.4 ± 0.2	1.587 ± 0.014	1.231 ± 0.011	0.985 ± 0.009
m1 = 1.5	1085.4 ± 0.3	1081.8 ± 0.3	1077.6 ± 0.2	1.993 ± 0.018	1.523 ± 0.014	1.205 ± 0.011
m1 = 2	1108.8 ± 0.3	1105 ± 0.3	1100.6 ± 0.3	2.512 ± 0.023	1.89 ± 0.018	1.475 ± 0.014
m1 = 2.5	1129.8 ± 0.3	1125.7 ± 0.3	1121.2 ± 0.3	3.159 ± 0.029	2.341 ± 0.022	1.804 ± 0.017
m1 = 3	1148.8 ± 0.3	1144.6 ± 0.3	1139.9 ± 0.3	3.947 ± 0.037	2.873 ± 0.028	2.182 ± 0.021
m1 = 3.5	1166.3 ± 0.3	1161.9 ± 0.3	1157.1 ± 0.3	4.96 ± 0.046	3.553 ± 0.035	2.66 ± 0.026
m1 = 4	1182.2 ± 0.3	1177.7 ± 0.3	1172.7 ± 0.3	6.131 ± 0.056	4.309 ± 0.043	3.175 ± 0.033
